Experiments:
[1] = target: Recombinant human MALT-1 (amino acids 340-824) (Homo sapiens (Human), UniProt Q9UDY8); experiment: MALT-1 inhibition assay (fluorogenic substrate Ac-LRSR-Rh110-DP); type: biochemical; settings: recombinant human MALT-1, substrate Ac-LRSR-Rh110-DP
Summary of the method: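 Reactions were started with fluorogenic substrate Ac-LRSR-Rh110-DP (10 μM final) against 3 nM enzyme and kept dark at 25° C for 60 minutes. IC50 values came from 4-parameter logistic fits of percent inhibition calculated from relative fluorescence units.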

[2] = test system: IL-2 secretion by human effector memory T cells (TEM); experiment: Effector memory T cells IL-2 release assay; type: cell-based; settings: T-cell; human CD4+ effector memory T cells, CD3/CD28 bead stimulation, 24 h; read-out: CD4TC IL2 IC50
Summary of the method: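 Human CD4+ effector memory T cells from healthy-donor buffy coats were stimulated with anti-CD3/CD28 Dynabeads and exposed to 10 semi-log compound doses (0.1% DMSO) for 24 h at 37 °C. Supernatant IL-2 was measured by HTRF, and IC50 came from a 4-parameter logistic fit to maximal IL-2. Viability was checked by flow cytometry.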

Chain of Recombinant human MALT-1 (amino acids 340-824) (Q9UDY8 340-824): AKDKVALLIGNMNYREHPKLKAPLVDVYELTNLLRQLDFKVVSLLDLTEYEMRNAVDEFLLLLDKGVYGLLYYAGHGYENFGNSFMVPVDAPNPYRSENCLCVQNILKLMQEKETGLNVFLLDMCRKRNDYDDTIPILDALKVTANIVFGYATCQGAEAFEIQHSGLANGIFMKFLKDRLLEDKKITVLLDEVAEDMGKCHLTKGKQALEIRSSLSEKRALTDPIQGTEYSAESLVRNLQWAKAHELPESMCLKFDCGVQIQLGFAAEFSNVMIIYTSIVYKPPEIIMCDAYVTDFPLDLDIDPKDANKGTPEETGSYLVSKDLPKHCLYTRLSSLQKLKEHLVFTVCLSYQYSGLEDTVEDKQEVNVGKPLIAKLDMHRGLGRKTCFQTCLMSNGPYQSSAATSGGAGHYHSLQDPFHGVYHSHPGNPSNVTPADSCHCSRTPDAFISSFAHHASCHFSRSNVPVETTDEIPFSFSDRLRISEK

Compound	IC50 [1] [nM]	IC50 [2] [nM]
Cc1ncc(C(=O)N(C)[C@@H](c2ccc(N3CCCc4c3cnc3cc(Cl)nn43)cc2)C(F)(F)F)s1 [CPD0019348, N-[(1S)-1-(4-{4-chloro-2,3,7,10-tetraazatricyclo[7.4.0.0^2,6]trideca-1(9),3,5,7-tetraen-10-yl}phenyl)-2,2,2-trifluoroethyl]-N,2-dimethyl-1,3-thiazole-5-carboxamide]	193	157
CC(=O)N(C)[C@@H](c1ccc(N2CCCc3c2cnc2cc(Cl)nn32)cc1)C(F)(F)F [CPD0019349, N-[(1S)-1-(4-{4-chloro-2,3,7,10-tetraazatricyclo[7.4.0.0^2,6]trideca-1(9),3,5,7-tetraen-10-yl}phenyl)-2,2,2-trifluoroethyl]-N-methylacetamide]	230	83
CN(C(=O)Cc1ccccc1O)[C@@H](c1ccc(N2CCCc3c2cnc2cc(Cl)nn32)cc1)C(F)(F)F [CPD0019350, N-[(1S)-1-(4-{4-chloro-2,3,7,10-tetraazatricyclo[7.4.0.0^2,6]trideca-1(9),3,5,7-tetraen-10-yl}phenyl)-2,2,2-trifluoroethyl]-2-(2-hydroxyphenyl)-N-methylacetamide]	70	103
Cc1ncsc1C(=O)N(C)[C@@H](c1ccc(N2CCCc3c2cnc2cc(Cl)nn32)cc1)C(F)(F)F [CPD0019351, N-[(1S)-1-(4-{4-chloro-2,3,7,10-tetraazatricyclo[7.4.0.0^2,6]trideca-1(9),3,5,7-tetraen-10-yl}phenyl)-2,2,2-trifluoroethyl]-N,4-dimethyl-1,3-thiazole-5-carboxamide]	278	152
CN(C(=O)c1nn(C)cc1Cl)[C@@H](c1ccc(N2CCCc3c2cnc2cc(Cl)nn32)cc1)C(F)(F)F [CPD0019352, 4-chloro-N-[(1S)-1-(4-{4-chloro-2,3,7,10-tetraazatricyclo[7.4.0.0^2,6]trideca-1(9),3,5,7-tetraen-10-yl}phenyl)-2,2,2-trifluoroethyl]-N,1-dimethyl-1H-pyrazole-3-carboxamide]	196	417
Cc1scnc1C(=O)N(C)[C@@H](c1ccc(N2CCCc3c2cnc2cc(Cl)nn32)cc1)C(F)(F)F [CPD0019353, N-[(1S)-1-(4-{4-chloro-2,3,7,10-tetraazatricyclo[7.4.0.0^2,6]trideca-1(9),3,5,7-tetraen-10-yl}phenyl)-2,2,2-trifluoroethyl]-N,5-dimethyl-1,3-thiazole-4-carboxamide]	582	271
COC(C)c1c(Nc2ccc([C@H](N(C)C(=O)C3CCS(=O)(=O)CC3)C(F)(F)F)cn2)cnc2ccc(Cl)nc12 (stereo partly drawn) [CPD0019499, N-[(1S)-1-(6-{[6-chloro-4-(1-methoxyethyl)-1,5-naphthyridin-3-yl]amino}pyridin-3-yl)-2,2,2-trifluoroethyl]-N-methyl-1,1-dioxo-1λ^6-thiane-4-carboxamide]	80	190
COc1ccccc1CC(=O)N(C)[C@@H](c1ccc(N2CCCc3c2cnc2cc(Cl)nn32)cc1)C(F)(F)F [CPD0021561, N-[(1S)-1-(4-{4-chloro-2,3,7,10-tetraazatricyclo[7.4.0.0^2,6]trideca-1(9),3,5,7-tetraen-10-yl}phenyl)-2,2,2-trifluoroethyl]-2-(2-methoxyphenyl)-N-methylacetamide]	63	900
CN(C(=O)C1CC(O)C1)[C@@H](c1ccc(N2CCCc3c2cnc2cc(Cl)nn32)cc1)C(F)(F)F (stereo partly drawn) [CPD0021565, N-[(1S)-1-(4-{4-chloro-2,3,7,10-tetraazatricyclo[7.4.0.0^2,6]trideca-1(9),3,5,7-tetraen-10-yl}phenyl)-2,2,2-trifluoroethyl]-3-hydroxy-N-methylcyclobutane-1-carboxamide]	84	86
CN(C(=O)C1CCOC1)[C@@H](c1ccc(N2CCCc3c2cnc2cc(Cl)nn32)cc1)C(F)(F)F (stereo partly drawn) [CPD0021568, N-[(1S)-1-(4-{4-chloro-2,3,7,10-tetraazatricyclo[7.4.0.0^2,6]trideca-1(9),3,5,7-tetraen-10-yl}phenyl)-2,2,2-trifluoroethyl]-N-methyloxolane-3-carboxamide]	169	143
CN(C(=O)C1CCCCO1)[C@@H](c1ccc(N2CCCc3c2cnc2cc(Cl)nn32)cc1)C(F)(F)F (stereo partly drawn) [CPD0021569, N-[(1S)-1-(4-{4-chloro-2,3,7,10-tetraazatricyclo[7.4.0.0^2,6]trideca-1(9),3,5,7-tetraen-10-yl}phenyl)-2,2,2-trifluoroethyl]-N-methyloxane-2-carboxamide]	211	325
CN(C(=O)C1CCCO1)[C@@H](c1ccc(N2CCCc3c2cnc2cc(Cl)nn32)cc1)C(F)(F)F (stereo partly drawn) [CPD0021570, N-[(1S)-1-(4-{4-chloro-2,3,7,10-tetraazatricyclo[7.4.0.0^2,6]trideca-1(9),3,5,7-tetraen-10-yl}phenyl)-2,2,2-trifluoroethyl]-N-methyloxolane-2-carboxamide]	147	142
CN(C(=O)C1CCCOC1)[C@@H](c1ccc(N2CCCc3c2cnc2cc(Cl)nn32)cc1)C(F)(F)F (stereo partly drawn) [CPD0021572, N-[(1S)-1-(4-{4-chloro-2,3,7,10-tetraazatricyclo[7.4.0.0^2,6]trideca-1(9),3,5,7-tetraen-10-yl}phenyl)-2,2,2-trifluoroethyl]-N-methyloxane-3-carboxamide]	166	193

The remaining lines, values ahead:

IC50 [1] [nM]	IC50 [2] [nM]	Compound
164	83	CN(C(=O)C1CC1)[C@@H](c1ccc(N2CCCc3c2cnc2cc(Cl)nn32)cc1)C(F)(F)F [CPD0019354, N-[(1S)-1-(4-{4-chloro-2,3,7,10-tetraazatricyclo[7.4.0.0^2,6]trideca-1(9),3,5,7-tetraen-10-yl}phenyl)-2,2,2-trifluoroethyl]-N-methylcyclopropanecarboxamide]
76	86	CN(C(=O)C1CC[S+]([O-])CC1)[C@@H](c1ccc(N2CCCc3c2cnc2cc(Cl)nn32)cc1)C(F)(F)F (stereo partly drawn) [CPD0019481]
91	146	CN(C(=O)C1CCSCC1)[C@@H](c1ccc(N2CCCc3c2cnc2cc(Cl)nn32)cc1)C(F)(F)F [CPD0019482, N-[(1S)-1-(4-{4-chloro-2,3,7,10-tetraazatricyclo[7.4.0.0^2,6]trideca-1(9),3,5,7-tetraen-10-yl}phenyl)-2,2,2-trifluoroethyl]-N-methylthiane-4-carboxamide]
25	59	CN(C(=O)C1CCS(=O)(=O)CC1)[C@@H](c1ccc(N2CC(C)(C)c3c2cnc2cc(Cl)nn32)cc1)C(F)(F)F [CPD0019494, N-[(1S)-1-(4-{11-chloro-3,3-dimethyl-1,5,8,12-tetraazatricyclo[7.3.0.0^2,6]dodeca-2(6),7,9,11-tetraen-5-yl}phenyl)-2,2,2-trifluoroethyl]-N-methyl-1,1-dioxo-1λ^6-thiane-4-carboxamide]
112	22	COC(C)c1c(Nc2ccc([C@H](N(C)C(=O)C3CCS(=O)(=O)CC3)C(F)(F)F)cc2)cnc2ccc(Cl)nc12 (stereo partly drawn) [CPD0019496, N-[(1S)-1-(4-{[6-chloro-4-(1-methoxyethyl)-1,5-naphthyridin-3-yl]amino}phenyl)-2,2,2-trifluoroethyl]-N-methyl-1,1-dioxo-1λ^6-thiane-4-carboxamide]
313	1250	COc1cc2ncc3c(n2n1)CCCN3c1ccc([C@H](N(C)C(=O)C2CCS(=O)(=O)CC2)C(F)(F)F)cc1 [CPD0019576, N-methyl-1,1-dioxo-N-[(1S)-2,2,2-trifluoro-1-(4-{4-methoxy-2,3,7,10-tetraazatricyclo[7.4.0.0^2,6]trideca-1(9),3,5,7-tetraen-10-yl}phenyl)ethyl]-1λ^6-thiane-4-carboxamide]
38	32	CN(C(=O)C1CCS(=O)(=O)CC1)[C@@H](c1ccc(N2CCC(C)(C)c3c2cnc2cc(Cl)nn32)cc1)C(F)(F)F [CPD0019589, N-[(1S)-1-(4-{4-chloro-13,13-dimethyl-2,3,7,10-tetraazatricyclo[7.4.0.0^2,6]trideca-1(9),3,5,7-tetraen-10-yl}phenyl)-2,2,2-trifluoroethyl]-N-methyl-1,1-dioxo-1λ^6-thiane-4-carboxamide]
80	103	CN(C(=O)C1CCS(=O)(=O)CC1)[C@@H](c1ccc(N2CCC(C)(C)c3c2cnc2cc(Cl)nn32)nc1)C(F)(F)F [CPD0021562, N-[(1S)-1-(6-{4-chloro-13,13-dimethyl-2,3,7,10-tetraazatricyclo[7.4.0.0^2,6]trideca-1(9),3,5,7-tetraen-10-yl}pyridin-3-yl)-2,2,2-trifluoroethyl]-N-methyl-1,1-dioxo-1λ^6-thiane-4-carboxamide]
247	332	CN(C(=O)C1CCCS(=O)(=O)C1)[C@@H](c1ccc(N2CCCc3c2cnc2cc(Cl)nn32)cc1)C(F)(F)F (stereo partly drawn) [CPD0021571, N-[(1S)-1-(4-{4-chloro-2,3,7,10-tetraazatricyclo[7.4.0.0^2,6]trideca-1(9),3,5,7-tetraen-10-yl}phenyl)-2,2,2-trifluoroethyl]-N-methyl-1,1-dioxo-1λ^6-thiane-3-carboxamide]
131	85	CN(C(=O)C1CCS(=O)(=O)C1)[C@@H](c1ccc(N2CCCc3c2cnc2cc(Cl)nn32)cc1)C(F)(F)F (stereo partly drawn) [CPD0021573]
123	121	CN(C(=O)C1CCOCC1)[C@@H](c1ccc(N2CCCc3c2cnc2cc(Cl)nn32)cc1)C(F)(F)F [CPD0021574, N-[(1S)-1-(4-{4-chloro-2,3,7,10-tetraazatricyclo[7.4.0.0^2,6]trideca-1(9),3,5,7-tetraen-10-yl}phenyl)-2,2,2-trifluoroethyl]-N-methyloxane-4-carboxamide]
